Counter-ions that a name gives are not always drawn.
Legend:
[1] = tested on: cerebral metabolism of serotonin; assay: Percent increase in cerebral endogenic level of 5-HTP, 5-HT and 5-HIAA in the rat after intragastric administration; assay type: in vivo; details: 1 hour
Description: This study, carried out in the rat, determined the efficacy of the compositions according to the present invention on the cerebral metabolism of serotonin and established the potentiation of the serotoninogenic effect with respect to the reference (L)-5-HTP. (Purine, pyrimidine, and pyridine bases are, of themselves, entirely devoid of this activity.)
The animals were male adult rats of the OFA stain weighing 160 to 180 g. They were subjected to an alternating light cycle of 12 hours of light and 12 hours of darkness.
The various derivatives according to the invention were administered in distilled water intragastically at doses of 10, 25, and 50 mg/kg. After one hour, the rats were decapitated; and the contents of 5-hydroxytryptamine (5-HT), of 5-HIAA, and of 5-hydroxytryptophane in the brains were determined by the methods published by G. Curzon and Cool, [Brit. J. Pharmaco., 39, 653 (1970)].
They represent the percentage increase of cerebral endogenic levels at 10, 25, 50 mg/kg of the pure (L)-5-HTP (control) and of compositions according to the present invention for a given batch of control rats.

[2] = tested on: blood levels of 5-HTP and 5-hydroxyindolacetic acid (5-HIAA); assay: Clinical results: blood levels of 5-HTP and 5-HIAA; assay type: in vivo; details: for blood levels of 5-HTP / blood levels of 5-hydroxyindolacetic acid (5-HIAA): clinical results; for blood levels of 5-hydroxyindolacetic acid (5-HIAA): principal metabolite of serotonin
Excerpt: In interpreting the clinical results of these remarkable medicaments, the applicants have observed that a complex of inosine with 5-HTP, particularly a complex of inosine with (L)-5-HTP, triples the blood levels of 5-HTP and 5-hydroxyindolacetic acid (5-HIAA), the principal metabolite of serotonin.

[3] = Aqueous solubility
[4] = tested on: mice; assay: Toxicity, LD50 per os/mice; assay type: in vivo
Excerpt: (§1) The toxicities of the salts and the complexes of 5-HTP according to the present invention are very low as witnessed by the LD50 's per os/mice assembled in Table 2 below: […]

[5] = prolonged administration of high doses; cited from earlier work
[6] = tested on: cerebral serotonin; details: 5-HTP alone; cited from earlier work
[7] = Toxicity, LD50 per os/mice; assay type: in vivo; details: mouse, in vivo, po, mice
Excerpt: as §1

[8] = tested on: receptors of benzodiazepines; details: P. Skolnick, 1979; cited from earlier work

Row | Compound | Percent increase in cerebral endogenic level of 5-HIAA ([1]; 10 mg/kg) [%] | Percent increase in cerebral endogenic level of 5-HT ([1]; 10 mg/kg) [%] | Percent increase in cerebral endogenic level of 5-Ht + 5-HIAA ([1]; 10 mg/kg) [%] | Percent increase in cerebral endogenic level of (L)-5-HTP ([1]; 10 mg/kg) [%] | Percent increase in cerebral endogenic level of 5-HIAA ([1]; 25 mg/kg) [%] | Percent increase in cerebral endogenic level of 5-HT ([1]; 25 mg/kg) [%] | Percent increase in cerebral endogenic level of 5-Ht + 5-HIAA ([1]; 25 mg/kg) [%] | Percent increase in cerebral endogenic level of (L)-5-HTP ([1]; 25 mg/kg) [%] | Percent increase in cerebral endogenic level of 5-HIAA ([1]; 50 mg/kg) [%] | Percent increase in cerebral endogenic level of 5-HT ([1]; 50 mg/kg) [%] | Percent increase in cerebral endogenic level of 5-Ht + 5-HIAA ([1]; 50 mg/kg) [%] | Percent increase in cerebral endogenic level of (L)-5-HTP ([1]; 50 mg/kg) [%] | other results
1 | NC(Cc1c[nH]c2ccc(O)cc12)C(=O)O.O.O=c1[nH]cnc2c1ncn2[C@@H]1O[C@H](CO)[C@@H](O)[C@H]1O (racemic) [Example 2, (DL) 5-HYDROXYTRYPTOPHANE INOSINATE] | 135 | 2 | 85 | 110 | 345 | 80 | 220 | 1665 | 1190 | 110 | 700 | 1955 | 
2 | N[C@H](Cc1c[nH]c2ccc(O)cc12)C(=O)O [(D)-5-HTP, reference compound] |  |  |  |  |  |  |  |  |  |  |  |  | activity ([2]; pharmacological response): almost entire absence of activity
3 | N[C@@H](Cc1c[nH]c2ccc(O)cc12)C(=O)O [(L)-5-HTP pure, (L)-5-hydroxytryptophane, reference compound] | 40 | 10 | 55 | 120 | 110 | 25 | 110 | 260 | 300 | 35 | 180 | 650 | 
4 | N[C@@H](Cc1c[nH]c2ccc(O)cc12)C(=O)O.O.O=c1[nH]cnc2c1ncn2[C@@H]1O[C@H](CO)[C@@H](O)[C@H]1O [Example 1, (L)-5-HTP INOSINATE] | 165 | 2 | 100 | 135 | 290 | 100 | 195 | 1755 | 1010 | 70 | 545 | 2665 | blood levels of 5-HTP [2]: triples; blood levels of 5-hydroxyindolacetic acid (5-HIAA) [2]: triples
5 | N[C@@H](Cc1c[nH]c2ccc(O)cc12)C(=O)O [Example 4, THEOPHYLLINE SALT OF (L)-5-HYDROXYTRYPTOPHANE] | 85 |  | 75 | 55 | 270 | 25 | 150 | 1200 | 870 | 35 | 490 | 1710 | solubility ([3]; water): 3500 µg/mL; LD50 per os [4]: 1000 mg/kg
6 | N[C@@H](Cc1c[nH]c2ccc(O)cc12)C(=O)O [Example 5-HTP, 5-hydroxytryptophane] |  |  |  |  |  |  |  |  |  |  |  |  | renal lesions [5]: often results in renal lesions; decarboxylation at the peripheral level [6]: considerable decarboxylation; hepatic catabolism [6]: high hepatic catabolism; overall yield of cerebral serotonin synthesized with respect to the amount of 5-hydroxytryptophane administered [6]: very low; passage of the gastrointestinal and hematoencephalic barriers [6]: mediocre passage
7 | Cc1ncc(CO)c(CO)c1O.Cl.N[C@@H](Cc1c[nH]c2ccc(O)cc12)C(=O)O [Example 7, EQUIMOLECULAR COMPLEX OF PYRIDOXINE WITH (L)-5-HYDROXYTRYPTOPHANE] | 35 | 20 | 40 | 190 | 230 | 80 | 165 | 420 | 755 | 25 | 390 | 2500 | 
8 | N[C@@H](Cc1c[nH]c2ccc(O)cc12)C(=O)O [Example 10, NI[…] OF (L)-5-HYDROXYTRYPTOPHANE] |  |  |  |  |  |  |  |  |  |  |  |  | LD50 [7]: > 2000 mg/kg
9 | N[C@@H](Cc1c[nH]c2ccc(O)cc12)C(=O)O [Example 12, CAFFEINE SALT OF (L)-5-HYDROXYTRYPTOPHANE] |  |  |  |  |  |  |  |  |  |  |  |  | LD50 per os [4]: > 2000 mg/kg
10 | NC(Cc1c[nH]c2ccc(O)cc12)C(=O)O.O=c1[nH]cnc2c1ncn2C1OC(CO)C(O)C1O (stereo not shown) [complex of inosine with 5-HTP] |  |  |  |  |  |  |  |  |  |  |  |  | blood levels of 5-HTP [2]: triples; blood levels of 5-hydroxyindolacetic acid (5-HIAA) [2]: triples
11 | O=c1[nH]cnc2nc[nH]c12 [hypoxanthine, 1,7-dihydropurine-6-one] |  |  |  |  |  |  |  |  |  |  |  |  | endogenous ligands of receptors of benzodiazepines [8]: can constitute endogenous ligands of receptors of benzodiazepines
12 | O=c1[nH]cnc2c1ncn2[C@@H]1O[C@H](CO)[C@@H](O)[C@H]1O [inosine, 9-β-D-ribofuranosylhypoxanthine] |  |  |  |  |  |  |  |  |  |  |  |  | endogenous ligands of receptors of benzodiazepines [8]: can constitute endogenous ligands of receptors of benzodiazepines
13 | EQU[…] OF (L)-5-HYDROXYT[…] OF ALLOPURINOL [Example 5] | 90 | 15 | 60 | 108 | 100 | 70 | 85 | 830 | 765 | 115 | 475 | 2100 | LD50 per os [4]: 1000 mg/kg
14 | EQU[…] OF […] (DL)-5-HYDROXYTRYPTOPHANE [Example 6] | 20 |  | 8 | 115 | 90 | 30 | 65 | 230 | 360 | 60 | 210 | 1575 | solubility in water ([3]; in words): very soluble in water
